# Assay: accelerated degradation studies (chemical stability, purity by HPLC)
# Type: physicochemical
# From the text: Crystalline particles of Form S of the compound of formula (I) were obtained using the methods described in Example 5 above. Crystalline particles of Form A were also obtained, using the ethyl acetate-heptane crystallization system described in WO2010/071583. Samples of Form A and Form S were subject to accelerated degradation studies. Samples of each crystalline form were stored at varying combinations of temperature and relative humidity and analysed for purity by HPLC at 0, 14 and 28 days.
# [1] = 60 °C, 30% relative humidity, Day 0
# [2] = 60 °C, 30% relative humidity, Day 14
# [3] = 60 °C, 30% relative humidity, Day 28
# [4] = 60 °C, 75% relative humidity, Day 0
# [5] = 60 °C, 75% relative humidity, Day 14
# [6] = 60 °C, 75% relative humidity, Day 28
# [7] = 70 °C, 11% relative humidity, Day 0
# [8] = 70 °C, 11% relative humidity, Day 14
# [9] = 70 °C, 11% relative humidity, Day 28
# [10] = 70 °C, 75% relative humidity, Day 0
# [11] = 70 °C, 75% relative humidity, Day 14
# [12] = 70 °C, 75% relative humidity, Day 28
# [13] = 80 °C, 30% relative humidity, Day 0
# [14] = 80 °C, 30% relative humidity, Day 14
# [15] = 80 °C, 30% relative humidity, Day 28
SMILES,Purity by HPLC [1] [%],Purity by HPLC [2] [%],Purity by HPLC [3] [%],Purity by HPLC [4] [%],Purity by HPLC [5] [%],Purity by HPLC [6] [%],Purity by HPLC [7] [%],Purity by HPLC [8] [%],Purity by HPLC [9] [%],Purity by HPLC [10] [%],Purity by HPLC [11] [%],Purity by HPLC [12] [%],Purity by HPLC [13] [%],Purity by HPLC [14] [%],Purity by HPLC [15] [%],"degradation in accelerated degradation studies (under all the conditions that the samples were exposed to, Form S compared with Form A)"
"CNCCOc1ccccc1C1(Nc2nccn(-c3cc(C(=O)NC4CC4)cc(F)c3C)c2=O)CC1 [Form S, N-cyclopropyl-3-fluoro-4-methyl-5-[3-[[1-[2-[2-(methylamino)ethoxy]phenyl]cyclopropyl]amino]-2-oxo-pyrazin-1-yl]benzamide]",99.77,99.77,99.77,99.77,99.64,99.63,99.77,99.77,99.77,99.77,99.77,99.77,99.77,99.77,99.78,significantly less degradation than Form A
"CNCCOc1ccccc1C1(Nc2nccn(-c3cc(C(=O)NC4CC4)cc(F)c3C)c2=O)CC1 [Form A, N-cyclopropyl-3-fluoro-4-methyl-5-[3-[[1-[2-[2-(methylamino)ethoxy]phenyl]cyclopropyl]amino]-2-oxo-pyrazin-1-yl]benzamide, reference compound]",99.43,99.41,99.39,99.43,99.20,99.21,99.43,99.33,99.33,99.43,98.78,98.76,99.43,99.40,99.36,
